Experimental data reported in publication PMC4177760, “Cytotoxicity of four Aframomum species (A. arundinaceum, A. alboviolaceum, A. kayserianum and A. polyanthum) towards multi-factorial drug resistant cancer cell lines” (BMC Complementary and Alternative Medicine, 2014).
Where two headings read alike, the source gives them in different places.

Experiments:
[1] = tested on: drug-sensitive CCRF-CEM leukemia cells; test: Resazurin reduction assay, CCRF-CEM; format: cell-based, human
Experimental: (§1) The cell lines used the present work, their origins and their treatments were previously reported. They include drug-sensitive CCRF-CEM and multidrug-resistant P-glycoprotein over-expressing CEM/ADR5000 leukemia cells, the MDA-MB-231-pcDNA3 breast cancer cells and its resistant subline MDA-MB-231-BCRP clone 23), the HCT116 (p53^+/+) colon cancer cells and its knockout clones HCT116 (p53^-/-), the U87MG glioblastoma cells and its resistant subline U87MG.ΔEGFR, HepG2 hepatocarcinoma cells and AML12 normal hepatocytes. The CCRF-CEM and CEM/ADR5000 leukemia cells were maintained in RPMI 1640 medium (Invitrogen) supplemented with 10% fetal calf serum in a humidified 5% CO2 atmosphere at 37°C. Sensitive and resistant cells were kindly provided by Dr. Axel Sauerbrey (Department of Pediatrics, University of Jena, Jena, Germany). The generation of the resistant subline was previously described. Breast cancer cells, transduced with control vector (MDA-MB-231-pcDNA3) or with cDNA for the breast cancer resistance protein BCRP (MDA-MB-231-BCRP clone 23), were maintained under standard conditions as described above for CCRF-CEM cells. Human wild-type HCT116 (p53^+/+) colon cancer cells as well as knockout clones HCT116 (p53^-/-) derived by homologous recombination were a generous gift from Dr. B. Vogelstein and H. Hermeking (Howard Hughes Medical Institute, Baltimore, MD). Human glioblastoma multiforme U87MG cells (non-transduced) and U87MG cell line transduced with an expression vector harboring an epidermal growth factor receptor (EGFR) gene with a genomic deletion of exons 2 through 7 (U87MG.ΔEGFR) were kindly provided by Dr. W. K. Cavenee (Ludwig Institute for Cancer Research, San Diego, CA). MDA-MB-231-BCRP, U87MG.ΔEGFR and HCT116 (p53^-/-) were maintained in DMEM medium containing 10% FBS (Invitrogen) and 1% penicillin (100 U/mL)-streptomycin (100 μg/mL) (Invitrogen) and were continuously treated with 800 ng/mL and 400 μg/mL geneticin, respectively. Human HepG2 hepatocellular carcinoma cells and normal AML12 heptocytes were obtained from the American Type Culture Collection (ATCC, USA). The above medium without geneticin was used to maintain MDA-MB-231, U87MG, HCT116 (p53^+/+), HepG2 and AML12 cell lines. The cells were passaged twice weekly. All experiments were performed with cells in the logarithmic growth phase.
(§2) The cytotoxicity of the studied samples was performed by resazurin reduction assay as we previously described. Briefly, adherent cells at 1x10^4 cells were allowed to attach overnight and then treated with different studied samples. […] For suspension cells, aliquots of 2 × 10^4 cells per well were seeded in 96-well-plates in a final volume of 200 μL. […] The tested concentrations ranges were 0.16 μg/mL to 40 μg/mL for crude extracts and isolated compounds and 0.08 μg/mL to 20 μg/mL for doxorubicin. After 72 h incubation and a resazurin (Sigma-Aldrich, Schnelldorf, Germany) staining, fluorescence was measured on an Infinite M2000 Pro™ plate reader (Tecan, Crailsheim, Germany) using an excitation wavelength of 544 nm and an emission wavelength of 590 nm. Each assay was done at least two times, with six replicates each. IC50 values represent the sample’s concentrations required to inhibit 50% of cell proliferation and were calculated from a calibration curve by linear regression using Microsoft Excel.

[2] = tested on: multidrug-resistant P-glycoprotein over-expressing CEM/ADR5000 leukemia cells; test: Resazurin reduction assay, CEM/ADR5000; format: cell-based, human; conditions: for IC50: CEM/ADR5000, 72 h; for degree of resistance: IC50 CEM/ADR5000 divided by IC50 CCRF-CEM
Experimental: as §1, §2

[3] = tested on: MDA-MB-231-pcDNA3 breast cancer cells; test: Resazurin reduction assay, MDA-MB-231; format: cell-based; conditions: MDA-MB-231, 72 h
Experimental: as §1, §2

[4] = tested on: MDA-MB-231-BCRP clone 23 breast cancer cells; test: Resazurin reduction assay, MDA-MB-231-BCRP; format: cell-based; conditions: for degree of resistance: IC50 MDA-MB-231-BCRP divided by IC50 MDA-MB-231; for IC50: 72 h
Experimental: as §1, §2

[5] = tested on: HCT116 (p53+/+) colon cancer cells; test: Resazurin reduction assay, HCT116 p53+/+; format: cell-based, human
Experimental: as §1, §2

[6] = tested on: HCT116 (p53-/-) colon cancer cells; test: Resazurin reduction assay, HCT116 p53-/-; format: cell-based, human; conditions: for IC50: HCT116 p53-/-, 72 h; for degree of resistance: IC50 HCT116 p53-/- divided by IC50 HCT116 p53+/+
Experimental: as §1, §2

U87MG glioblastoma cells = test: Resazurin reduction assay, U87MG; format: cell-based, human; conditions: 72 h
Experimental: as §1, §2

[7] = tested on: U87MG.ΔEGFR glioblastoma cells; test: Resazurin reduction assay, U87MG.ΔEGFR; format: cell-based, human; conditions: for IC50: U87MG.ΔEGFR, 72 h; for degree of resistance: IC50 U87MG.ΔEGFR divided by IC50 U87MG
Experimental: as §1, §2

[8] = tested on: HepG2 hepatocarcinoma cells; test: Resazurin reduction assay, HepG2; format: cell-based, human; conditions: HepG2, 72 h
Experimental: as §1, §2

AML12 normal hepatocytes = test: Resazurin reduction assay, AML12; format: cell-based; conditions: 72 h
Experimental: as §1, §2

[9] = tested on: nine cancer cell lines, sensitive and MDR phenotypes; test: Resazurin reduction assay, all tested cancer cell lines; format: cell-based; conditions: read-out: IC50 values on all tested cancer cell lines
Experimental: The cell lines used the present work, their origins and their treatments were previously reported. They include drug-sensitive CCRF-CEM and multidrug-resistant P-glycoprotein over-expressing CEM/ADR5000 leukemia cells, the MDA-MB-231-pcDNA3 breast cancer cells and its resistant subline MDA-MB-231-BCRP clone 23), the HCT116 (p53^+/+) colon cancer cells and its knockout clones HCT116 (p53^-/-), the U87MG glioblastoma cells and its resistant subline U87MG.ΔEGFR, HepG2 hepatocarcinoma cells and AML12 normal hepatocytes. The CCRF-CEM and CEM/ADR5000 leukemia cells were maintained in RPMI 1640 medium (Invitrogen) supplemented with 10% fetal calf serum in a humidified 5% CO2 atmosphere at 37°C. Sensitive and resistant cells were kindly provided by Dr. Axel Sauerbrey (Department of Pediatrics, University of Jena, Jena, Germany). The generation of the resistant subline was previously described. […]
The cytotoxicity of the studied samples was performed by resazurin reduction assay as we previously described. […] After 72 h incubation and a resazurin (Sigma-Aldrich, Schnelldorf, Germany) staining, fluorescence was measured on an Infinite M2000 Pro™ plate reader (Tecan, Crailsheim, Germany) using an excitation wavelength of 544 nm and an emission wavelength of 590 nm. […]

[10] = tested on: human promyeloleukemia cell line HL-60; parameters: method as in PMID 14505793, PMID 12832847, PMID 16310358; conditions: HL-60, via a transient induction of caspase-3/CPP32 activity; cited from earlier work
[11] = single concentration 40 μg/mL, 72 h, preliminary test
[12] = Homo sapiens, HCT-116, 72 h, read-out: IC50
[13] = Homo sapiens, HCT-116, read-out: IC50
[14] = Homo sapiens, U-87 MG, read-out: IC50
[15] = Homo sapiens, CCRF-CEM, 72 h; read-out: IC50
[16] = MDA-MB-231-BCRP, read-out: IC50

Row | Compound | Growth percentage (growth proliferation) of CCRF-CEM cells [1, 11] | IC50 ([2]; Homo sapiens, read-out: IC50) [µg/mL] | degree of resistance [2] | IC50 ([3]; Homo sapiens, read-out: IC50) [µg/mL] | degree of resistance [4] | IC50 [5, 12] [µg/mL] | IC50 [6, 13] [µg/mL] | IC50 (U87MG glioblastoma cells; [14]) [µg/mL] | IC50 ([7]; Homo sapiens, read-out: IC50) [µg/mL] | IC50 ([8]; Homo sapiens, read-out: IC50) [µg/mL] | IC50 (AML12 normal hepatocytes; Mus musculus, read-out: IC50) [µg/mL] | IC50 [1, 15] [µg/mL] | further results
1 | 1,4-dihydroxybenzene [Compound 7] | more than 50% |  |  |  |  |  |  |  |  |  |  |  | 
2 | CC1(C)CCC[C@@]2(C)[C@H]1CC[C@@]1(CO1)[C@@H]2C/C=C(/C=O)CC=O [Compound 1, aframodial] | more than 50% |  |  |  |  |  |  |  |  |  |  |  | 
3 | C=C1CCC2C(C)(C)CCCC2(C)C1CC=C(C=O)CC=O (stereo not drawn) [Compound 2, 8(17),12-labdadien-15,16-dial] | more than 50% |  |  |  |  |  |  |  |  |  |  |  | 
4 | CC1(C)CCCC2(C)C1CCC1(CO1)C2CC=C1CCOC1=O (stereo not drawn) [Compound 3, galanolactone] | more than 50% |  |  |  |  |  |  |  |  |  |  |  | 
5 | CC1(C)CCCC2(C)C1CCC1(C=O)C(O)CC(C=O)=CCC21 (stereo not drawn) [Compound 4, galanal A] | 47.78% | > 40 | > 2.31 | > 40 | < 0.70 | > 40 | > 40 | > 40 | > 40 | > 40 | > 40 |  | IC50 ([1]; Homo sapiens, CCRF-CEM, 72 h, CCRF-CEM, read-out: IC50): 17.3 ± 1.96 µg/mL; IC50 ([4]; MDA-MB-231/BCRP, MDA-MB-231-BCRP, read-out: IC50): 28 ± 2.39 µg/mL
6 | CC1(C)CCCC2(C)C1CCC1(C=O)C(O)CC(C=O)=CCC21 (stereo not drawn) [Compound 5, galanal B] | 49.81% |  | > 2.02 |  |  |  |  |  |  |  |  |  | IC50 ([1]; CCRF-CEM, 72 h): 19.81 ± 2.01 µg/mL; IC50 [2]: - ((-): >40 μg/mL); IC50 [3]: - ((-): >40 μg/mL); IC50 ([4]; MDA-MB-231-BCRP): - ((-): >40 μg/mL); IC50 ([5]; 72 h): - ((-): >40 μg/mL); IC50 [6]: - ((-): >40 μg/mL); IC50 (U87MG glioblastoma cells): - ((-): >40 μg/mL); IC50 [7]: - ((-): >40 μg/mL); IC50 [8]: - ((-): >40 μg/mL); IC50 (AML12 normal hepatocytes): - ((-): >40 μg/mL)
7 | CC1=CC(O)C(C(C)C)CC1O (stereo not drawn) [Compound 6, 1-p-menthene-3,6-diol] | more than 50% |  |  |  |  |  |  |  |  |  |  |  | 
8 | O=C1C[C@@H](c2ccc(O)cc2)Oc2cc(O)cc(O)c21 [Compound 8, naringenin] | 38.49% | 7.86 ± 0.74 | 0.64 | 9.51 ± 1.03 | 1.91 | 13.7 ± 1.11 | 13.9 ± 0.94 | 29.8 ± 1.88 | 18 ± 1.34 | 23.5 ± 1.95 | > 40 | 12.2 ± 1.87 | IC50 [4, 16]: 18.1 ± 2.01 µg/mL; degree of resistance [6]: 1.02; degree of resistance [7]: 0.60; IC50 [9]: < 40 µg/mL; apoptosis induction [10]: induced apoptosis
9 | COc1ccc(-c2oc3cc(OC)cc(O)c3c(=O)c2OC)cc1 [Compound 9, kaempferol-3,7,4’-trimethylether] | 39.58% | 18.2 ± 1.18 | 0.99 | > 40 | < 0.83 | > 40 | 36.7 ± 2.31 | > 40 | > 40 | > 40 | > 40 | 18.4 ± 2.04 | IC50 ([4]; MDA-MB-231/BCRP): 33.1 ± 2.64 µg/mL
10 | COc1cccc2c1C(=O)c1c(O)c3c(c(O)c1C2=O)C[C@@](O)(C(=O)CO)C[C@@H]3O[C@H]1C[C@H](N)[C@H](O)[C@H](C)O1 [Doxorubucin, Doxorubicin, reference compound] |  | > 20 | 1772 | 1.1 ± 0.01 | 7.11 | 1.43 ± 0.02 | 4.06 ± 0.04 | 1.06 ± 0.03 | 6.11 ± 0.04 | 1.41 ± 0.12 | > 40 | 0.11 ± 0.01 | IC50 [4, 16]: 7.83 ± 0.01 µg/mL; degree of resistance [6]: 2.84; degree of resistance [7]: 5.76; IC50 ([9]; all nine tested cancer cell lines): < 40 µg/mL
